From the NIST ThermoML archive (doi:10.1021/je700261b)

Test: xn = mol fraction of the nth substance listed
Conditions: Liquid

CCCCO [butan-1-ol] + O=C=O
Conditions	mass density [kg/m3]
352.85 K, 17077 kPa, x2 = 0.4972	791.44
352.85 K, 18031 kPa, x2 = 0.4972	793.15
352.85 K, 19033 kPa, x2 = 0.4972	794.93
352.85 K, 20018 kPa, x2 = 0.4972	796.63
352.85 K, 21055 kPa, x2 = 0.4972	798.4
352.85 K, 22035 kPa, x2 = 0.4972	800
352.85 K, 23067 kPa, x2 = 0.4972	801.7
352.85 K, 24007 kPa, x2 = 0.4972	803.18
352.85 K, 25035 kPa, x2 = 0.4972	804.81
352.88 K, 14075 kPa, x2 = 0.5965	780.49
352.88 K, 15042 kPa, x2 = 0.5965	783.18
352.88 K, 16039 kPa, x2 = 0.5965	785.88
352.88 K, 17076 kPa, x2 = 0.5965	788.55
352.88 K, 18030 kPa, x2 = 0.5965	790.96
352.88 K, 18449 kPa, x2 = 0.8663	712.26
352.88 K, 19037 kPa, x2 = 0.5965	793.41
352.88 K, 19044 kPa, x2 = 0.8663	719.05
352.88 K, 20049 kPa, x2 = 0.5965	795.8
352.88 K, 20064 kPa, x2 = 0.8663	729.73
352.88 K, 21030 kPa, x2 = 0.5965	798.05
352.88 K, 21052 kPa, x2 = 0.8663	739.04
352.88 K, 22036 kPa, x2 = 0.5965	800.27
352.88 K, 22047 kPa, x2 = 0.8663	747.62
352.88 K, 23019 kPa, x2 = 0.5965	802.43
352.88 K, 23067 kPa, x2 = 0.8663	755.76
352.88 K, 24035 kPa, x2 = 0.8663	762.91
352.88 K, 24039 kPa, x2 = 0.5965	804.6
352.88 K, 25048 kPa, x2 = 0.8663	769.99
352.88 K, 25092 kPa, x2 = 0.5965	806.79
362.66 K, 20602 kPa, x2 = 0.9698	595.03
362.66 K, 21041 kPa, x2 = 0.9698	604.05
362.66 K, 22017 kPa, x2 = 0.9698	622.53
362.66 K, 23022 kPa, x2 = 0.9698	639.79
362.66 K, 24038 kPa, x2 = 0.9698	655.56
362.66 K, 25046 kPa, x2 = 0.9698	669.85
362.67 K, 1053 kPa, x2 = 0.0251	755.01
362.67 K, 2066 kPa, x2 = 0.0251	756.19
362.67 K, 3045 kPa, x2 = 0.0251	757.27
362.67 K, 4013 kPa, x2 = 0.0251	758.36
362.67 K, 5068 kPa, x2 = 0.0251	759.49
362.67 K, 6009 kPa, x2 = 0.0251	760.49
362.67 K, 6988 kPa, x2 = 0.0251	761.58
